# Assay results as given in patent US8329639B2, “MUC1 based glycolipopeptide vaccine with adjuvant” (priority 2011, dated 2012).
# Columns and labels:
# [1] = test system: MUC1 antigen having SEQ ID NO: 2; test: Humoral response: serum IgG ELISA on plates coated with MUC1 antigen; type: in vivo, C57B1/6J mice; details: vaccine 5, 25 and 100 μg/mouse; PET lipid A 50 μg; serially diluted sera
# Protocol: C57B1/6J mice were injected with a liposomal vaccine formulation of Example 1 in three different concentrations of vaccine (5, 25 and 100 μg). 50 μg dose of PET lipid A and saline were used as a negative control. Sera from the mice were isolated and subsequently serially diluted and incubated onto plates coated with MUC1 antigen having SEQ ID NO: 2. After incubation with sera, the plates were washed and a labeled anti-mouse IgG specific antibody was added. The antibody was washed off and the mouse IgG was measured via an ELISA reader.
# B16-MUC1 tumor cells = test: Tumor growth, B16-MUC1 model; type: in vivo, C57B1/6 mice; details: 50 μg Liposomal PET Lipid A, value stated jointly with saline group
# Protocol: (§1) C57B1/6 mice were treated using a bi-weekly schedule with saline vehicle, 50 μg Liposomal PET Lipid A or 5 μg of liposomal vaccine formulation of Example 1 starting on day −42. On Day 0, mice were challenged with either 2×10^6 B16-MUC1, 0.5×10^6 B16, or 2×10^6MC38-MUC1 tumor cells followed by two additional vaccinations on days +3 and +17. Tumor growth was recorded twice weekly.
# In the B16-MUC1 model, animals treated with the Example 1 vaccine formulation had no tumors at Day 44. 9/12 animals were tumor free in the Example 1 vaccine formulation group at end of study. […] Mean tumor volume in these two groups was about 200 mm^3 by Day 10. By Day 24, mean tumor volume was about 1200 mm^3 for the saline and PET lipid A groups.
# MC38-MUC1 tumor cells = test: Tumor growth, MC38-MUC1 model; type: in vivo, C57B1/6 mice; details: vaccine 5 μg, Liposomal PET Lipid A 50 μg
# Protocol: as §1
# In the MC38-MUC1 model, 3/12 animals were tumor free in the Example 1 vaccine formulation group at the end of the study. […] By Day 32, mean tumor volume was about 120 mm^3 for the Example 1 vaccine formulation group as compared to about 1200 mm^3 for the PET lipid A group and about 1700 mm^3 for the saline group.
substance,measurement,setting,value
pentaerythritol-6-chain-C14-glucosamine-mono-phosphate [PET lipid A],antibody (IgG) response by ELISA,[1],no antibody response
same,mean tumor volume by Day 10,B16-MUC1 tumor cells,about 200 mm^3
same,mean tumor volume by Day 24,B16-MUC1 tumor cells,about 1200 mm^3
same,mean tumor volume by Day 32,MC38-MUC1 tumor cells,about 1200 mm^3
